The source of these data is publication PMC4801207, “Characterisation of Signalling by the Endogenous GPER1 (GPR30) Receptor in an Embryonic Mouse Hippocampal Cell Line (mHippoE-18)” (PLoS ONE, 2016).

SMILES strings stand for the structures.

The experiment concerns the target T1, GPER1 (GPR30) (Mus musculus, UniProt Q8BMP4).
T1 construct: full-length endogenous receptor, native in mHippoE-18 immortalized embryonic mouse hippocampal cell line (CELLutions Biosystems); cells also express moderate ERalpha and ERbeta
T1 sequence (Q8BMP4 1-375): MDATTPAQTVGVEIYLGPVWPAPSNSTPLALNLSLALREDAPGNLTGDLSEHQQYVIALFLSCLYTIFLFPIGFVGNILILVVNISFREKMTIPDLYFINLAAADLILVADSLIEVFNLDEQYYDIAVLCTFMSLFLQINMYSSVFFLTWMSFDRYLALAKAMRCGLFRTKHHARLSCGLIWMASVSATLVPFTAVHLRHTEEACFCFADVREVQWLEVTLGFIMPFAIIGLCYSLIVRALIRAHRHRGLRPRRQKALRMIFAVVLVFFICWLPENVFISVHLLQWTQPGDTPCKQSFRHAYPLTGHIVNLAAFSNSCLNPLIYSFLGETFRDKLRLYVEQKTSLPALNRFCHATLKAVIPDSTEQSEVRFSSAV
In words: cAMP accumulation, radiometric PKA binding assay, mHippoE-18 cells. As to conditions: agonist; potentiation of 10 μM forskolin-stimulated cAMP, 100 μM IBMX, 20 min; endogenous receptor, no antagonist. The format is cell-based. In general terms: cAMP levels reflect the balance of adenylyl cyclase and phosphodiesterase activity.

What is called EC50 is the concentration at which the effect is half-maximal. Turning to `CC(=O)c1ccc2c(c1)[C@H]1C=CC[C@H]1[C@@H](c1cc3c(cc1Br)OCO3)N2` (racemic) [G1], the EC50 was 0.52 nM.

As for `C[C@]12CC[C@@H]3c4ccc(O)cc4CC[C@H]3[C@@H]1CC[C@@H]2O` [17β-Estradiol], the EC50 stood at 1.1 nM.

Regarding `C[C@]12CC[C@@H]3c4ccc(O)cc4C[C@@H](CCCCCCCCC[S+]([O-])CCCC(F)(F)C(F)(F)F)[C@H]3[C@@H]1CC[C@@H]2O` (stereo partly drawn) [ICI 182,780, 7α, 17β-[9-[(4,4,5,5,5-Pentafluoropentyl)sulfinyl]nonyl]estra-1,3,5(10)-triene-3,17-diol], the EC50 amounted to 3.6 nM.
